US8946173B2, “Cancer cell death inducing agent having effects of potentiating anticancer drug against anticancer-drug-resistant cancer” (Momotaro-Gene Inc., priority 2007, dated 2015)

System: MCF7/ADR cells
Experiment: Cell survival rate assay with doxorubicin
Type: cell-based, human
Conditions: no treatment group (no vector)
Experimental: Cells were seeded in a 96-well flat bottom microplate at 1000 cells per well. After 24 hours of incubation, cells were treated with Ad-LacZ and Ad-REIC at 100 MOI in serum free medium for 2 hours, followed by exchange with fresh complete medium. After 48 hours, floating dead cells were removed by medium exchange. Adhering cells were cultured with doxorubicin at various concentrations for 72 hours. At the end of incubation, cell survival rates were measured using CellTiter96 (trademark) Aqueous One Solution Cell Proliferation Assay (Promega Corp.).

Compound: COc1cccc2c1C(=O)c1c(O)c3c(c(O)c1C2=O)C[C@@](O)(C(=O)CO)C[C@@H]3O[C@H]1C[C@H](N)[C@H](O)[C@H](C)O1 [doxorubicin]
- cell survival % (10 μM doxorubicin): 88.1%
- cell survival rates (25 μM doxorubicin): 45.9%
